Structures can show the parent of a compound that is named as a salt.
Tested on: A549 cells
Test: Photocytotoxicity (MTT assay after LED irradiation)
Assay type: cell-based, Human
Settings: 0.5 μg/ml Hp, 3 hours
Description: Human lung adenocarcinoma A549 cells were kept in a humidified incubator containing 5% CO2 at 37° C. A549 cells were cultured in DMEM supplemented with 10% fetal bovine serum (FBS) and 1% penicillin-streptomycin (GIBCO BRL, USA). The cells were routinely grown in tissue culture flask and harvested with a solution of 1% trypsin while in the logarithmic phase of growth. The cells were kept in the above culture conditions for experiments.
A549 cells were grown in 96-well plates at a density of 8×10^3 cells/well for 24 hours. […] The cells were incubated for 3 hours (protection from light) and washed once with 100 μl PBS/well. The no phenol red medium (100 μl/well) was added to the cells and then irradiated with various doses of light using LED (635±5 nm, 60 mW/cm^2) light source. After light irradiation, the original medium was removed and DMEM containing 10% FBS was added to each well. Twenty-four hours later, cell survival was measured using an MTT [3(4,5-dimethyl-thiazoyl-2-yl) 2,5 diphenyl-tetrazolium bromide] assay. The MTT assay was based on the activity of mitochondria dehydrogenases wherein a water-soluble tetrazolium salt was reduced to a purple insoluble formazan product. The amount of MTT formazan product was analyzed with spectrophotometer at the absorbance of 570 nm.

`CC1=C(CCC(=O)O)c2cc3[nH]c(cc4nc(cc5[nH]c(cc1n2)c(C)c5C(C)O)C(C)=C4C(C)O)c(C)c3CCC(=O)O` (centres unmarked) [Hp, Hematoporphyrin Dihydrochloride] gave a cells alive (irradiation at 4 J/cm2) of 89% and a cells alive (irradiation at 12 J/cm2) of 75%.

— patent publication US20100310660A1, “DRY POWDER MICROPARTICLES FOR PULMONARY DELIVERY” (TAIPEI MEDICAL UNIVERSITY, priority 2009, published 2010)
